Experimental data published in PubChem BioAssay (NCI).
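Cultured in 96-well plates, cells were exposed to test compound for 48 hours across five concentrations. Definition used: TGI = concentration required for complete inhibition of growth.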

Legend:
Experiment in all cases: DTP human tumour cell line panel, 48 h
[1] = tested on: 786-0 renal
[2] = tested on: A498 renal
[3] = tested on: A549 NSCLC
[4] = tested on: ACHN renal
[5] = tested on: BT-549 breast
[6] = tested on: CAKI-1 renal
[7] = tested on: CCRF-CEM leukemia
[8] = tested on: COLO 205 colon
[9] = tested on: DU-145 prostate
[10] = tested on: EKVX NSCLC
[11] = tested on: HCC-2998 colon
[12] = tested on: HCT-116 colon
[13] = tested on: HL-60(TB) leukemia
[14] = tested on: HOP-62 NSCLC
[15] = tested on: HOP-92 NSCLC
[16] = tested on: HS 578T breast
[17] = tested on: HT29 colon
[18] = tested on: IGROV1 ovarian
[19] = tested on: K-562 leukemia
[20] = tested on: KM12 colon
[21] = tested on: M14 melanoma
[22] = tested on: MALME-3M melanoma
[23] = tested on: MCF7 breast
[24] = tested on: MDA-MB-231 breast
[25] = tested on: MDA-MB-435
[26] = tested on: MDA-N
[27] = tested on: MOLT-4 leukemia
[28] = tested on: NCI-H226 lung
[29] = tested on: NCI-H23 lung
[30] = tested on: NCI-H460 lung
[31] = tested on: NCI-H522 lung
[32] = tested on: OVCAR-3 ovarian
[33] = tested on: OVCAR-4 ovarian
[34] = tested on: OVCAR-5 ovarian
[35] = tested on: OVCAR-8 ovarian
[36] = tested on: PC-3 prostate
[37] = tested on: RXF 393 renal
[38] = tested on: SF-268 CNS
[39] = tested on: SF-295 CNS
[40] = tested on: SF-539 CNS
[41] = tested on: SK-MEL-28 melanoma
[42] = tested on: SK-MEL-5 melanoma
[43] = tested on: SK-OV-3 ovarian
[44] = tested on: SN12C renal
[45] = tested on: SNB-19 CNS
[46] = tested on: SNB-75 CNS
[47] = tested on: SR leukemia
[48] = tested on: SW-620 colon
[49] = tested on: T-47D breast
[50] = tested on: TK-10 renal
[51] = tested on: U251 CNS
[52] = tested on: UACC-257 melanoma
[53] = tested on: UACC-62 melanoma
[54] = tested on: UO-31 renal
[55] = tested on: HCT-15 colon
[56] = tested on: LOX IMVI melanoma
[57] = tested on: RPMI-8226 leukemia
[58] = tested on: SK-MEL-2 melanoma

CCCCCCCC(CC(=O)NC(CO)C(=O)NC(CO)CC(C)C)OC(=O)CC(CCCCCCC)OC(=O)CC(CCCCCCC)OC1OC(C)C(O)C(OC2OC(C)C(OC(C)=O)C(O)C2O)C1O (centres undefined)
TGI [1]: 18.5 µM
TGI [2]: 23.5 µM
TGI [3]: 23.8 µM
TGI [4]: 29.2 µM
TGI [5]: 19.6 µM
TGI [6]: 29 µM
TGI [7]: 14.2 µM
TGI [8]: 9.14 µM
TGI [9]: 24 µM
TGI [10]: 28.2 µM
TGI [11]: 17.2 µM
TGI [12]: 17.9 µM
TGI [13]: 9.2 µM
TGI [14]: 31.2 µM
TGI [15]: 21 µM
TGI [16]: 18.7 µM
TGI [17]: 13 µM
TGI [18]: 22.5 µM
TGI [19]: 34.3 µM
TGI [20]: 14.3 µM
TGI [21]: 13.8 µM
TGI [22]: 23.9 µM
TGI [23]: 23.8 µM
TGI [24]: 20.4 µM
TGI [25]: 19.4 µM
TGI [26]: 14 µM
TGI [27]: 12.2 µM
TGI [28]: 35.5 µM
TGI [29]: 22 µM
TGI [30]: 15.6 µM
TGI [31]: 24.7 µM
TGI [32]: 24.2 µM
TGI [33]: 19.4 µM
TGI [34]: 21.7 µM
TGI [35]: 23.3 µM
TGI [36]: 16.2 µM
TGI [37]: 16.9 µM
TGI [38]: 23.3 µM
TGI [39]: 24.3 µM
TGI [40]: 23.4 µM
TGI [41]: 19.4 µM
TGI [42]: 21.8 µM
TGI [43]: 29.8 µM
TGI [44]: 18.6 µM
TGI [45]: 18.3 µM
TGI [46]: 16.3 µM
TGI [47]: 6.22 µM
TGI [48]: 23.3 µM
TGI [49]: 23.1 µM
TGI [50]: 29.8 µM
TGI [51]: 14.7 µM
TGI [52]: 12 µM
TGI [53]: 19 µM
TGI [54]: 28.8 µM

COC(=O)[C@@H]1C[C@H]2OC(=O)CC[C@]2(C)O[C@H]1[C@H]1O[C@@](C)(O)CCC[C@H]1C
TGI [1]: > 50 µM
TGI [3]: > 50 µM
TGI [4]: > 50 µM
TGI [5]: > 50 µM
TGI [6]: > 50 µM
TGI [7]: 39.3 µM
TGI [8]: > 50 µM
TGI [9]: > 50 µM
TGI [10]: > 50 µM
TGI [11]: > 50 µM
TGI [12]: > 50 µM
TGI [55]: > 50 µM
TGI [13]: 30.6 µM
TGI [14]: > 50 µM
TGI [16]: > 50 µM
TGI [17]: > 50 µM
TGI [18]: > 50 µM
TGI [19]: > 50 µM
TGI [20]: > 50 µM
TGI [56]: > 50 µM
TGI [21]: > 50 µM
TGI [22]: > 50 µM
TGI [23]: > 50 µM
TGI [24]: > 50 µM
TGI [25]: > 50 µM
TGI [26]: > 50 µM
TGI [27]: > 50 µM
TGI [28]: > 50 µM
TGI [29]: > 50 µM
TGI [30]: > 50 µM
TGI [31]: > 50 µM
TGI [32]: > 50 µM
TGI [33]: > 50 µM
TGI [34]: > 50 µM
TGI [35]: > 50 µM
TGI [36]: > 50 µM
TGI [57]: > 50 µM
TGI [37]: > 50 µM
TGI [38]: > 50 µM
TGI [39]: > 50 µM
TGI [40]: > 50 µM
TGI [58]: > 50 µM
TGI [41]: > 50 µM
TGI [42]: > 50 µM
TGI [43]: > 50 µM
TGI [44]: > 50 µM
TGI [45]: > 50 µM
TGI [47]: > 50 µM
TGI [48]: > 50 µM
TGI [49]: > 50 µM
TGI [50]: > 50 µM
TGI [51]: > 50 µM
TGI [52]: > 50 µM
TGI [53]: > 50 µM
TGI [54]: > 50 µM
